{
  "source": "patent US10682417B2",
  "about": "“Targeted sensitization of non-del(5q) malignant cells” (H. LEE MOFFITT CANCER CENTER AND RESEARCH INSTITUTE, INC., priority 2013, dated 2020)",
  "key": {"del5q MDS": {"system": "del5q MDS", "conditions": "patients with del5q MDS; cited from earlier work"}, "U937 cells": {"system": "U937 cells", "assay": "Apoptosis after dual Cdc25C/PP2Acα shRNA knockdown plus lenalidomide, U937 cells", "format": "cell-based", "conditions": "dual Cdc25C and PP2Acα shRNA knockdown 48 hours, then lenalidomide 5 μM for 48 hours", "description": "(§1) FIGS. 2A-2B are images of an RT-PCR gel (FIG. 2A) and Western blot (FIG. 2B) to detect PP2A and Cdc25C gene (FIG. 2A) and protein (FIG. 2B) expression in U937 cells infected with mock (lane 1), lentiviral vectors encoding non-target shRNA control (lane 2), shCdc25C (lane 3), shPP2Acα (lane 4), shCdc25C and PP2Acα (lane 5) and negative for PCR (lane 6) and harvested 48 hours after incubation. FIGS. 2C and 2D are bar graphs showing P2Acα and Cdc25c mRNA expression (copies/GAPDH) in U937 cells infected with mock, lentiviral vectors encoding non-target shRNA control, shCdc25C, shPP2Acα, or shCdc25C and PP2Acα. FIGS. 2E-2F are bar graphs showing apoptosis (%) in U937 cells (E) or BM-MNC (F) that were infected with lentiviral vectors containing various constructs as indicated for 48 hours and then treated with or without lenalidomide at the concentration of […] for additional 48 hours before being analyzed for apoptosis. […]\n(§2) U937 cells were infected with mock (lane 1), lentiviral vectors encoding non-target shRNA control (lane 2), shCdc25C (lane 3), shPP2Acα (lane 4), shCdc25C and PP2Acα (lane 5) and negative for PCR (lane 6). […] The U937 cells (FIG. 2C) or BM-MNC (FIG. 2D) were infected with lentiviral vectors containing various constructs as indicated for 48 hours and then treated with or without lenalidomide at the concentration of 5 μM for additional 48 hours before analyzed for apoptosis. […]"}, "[1]": {"system": "BM-MNC from non-(del)5q MDS patients", "assay": "Apoptosis after dual Cdc25C/PP2Acα shRNA knockdown plus lenalidomide, BM-MNC", "format": "cell-based, human", "conditions": "dual knockdown 48 hours, then lenalidomide 5 μM for 48 hours, p<0.001 vs shRNA control plus lenalidomide, five patients", "description": "as §1, §2"}},
  "data": [
    {"smiles": "Nc1cccc2c1CN(C1CCC(=O)NC1=O)C2=O", "note": "(racemic) [lenalidomide, (RS)-3-(4-Amino-1-oxo 1,3-dihydro-2H-isoindol-2-yl)piperidine-2,6-dione]", "values": [
      {"measurement": "median duration of response", "setting": "del5q MDS", "value": 2.5, "unit": "years"},
      {"measurement": "apoptotic response to lenalidomide", "setting": "U937 cells", "value": "increases apoptotic response"},
      {"measurement": "apoptotic response to lenalidomide", "setting": "[1]", "value": "increases apoptotic response"}
    ]}
  ]
}
